Consider one compound from publication PMC3919815, “Anti-Tumor Effects of Novel 5-O-Acyl Plumbagins Based on the Inhibition of Mammalian DNA Replicative Polymerase Activity” (PLoS ONE, 2014).

Common to all, as to test: DNA polymerase activity inhibition
Holding throughout (format): biochemical

The target in one experiment is T1, Rat pol β (Rattus norvegicus, UniProt P06766).
T1 construct: made in house; host or cells: Escherichia coli JMpβ5
To be noted: 0.05 units enzyme; mean ± SD (n = 3).

In the next experiment the target is T2, Calf pol α (Bos taurus, UniProt A0AAA9TD94).
T2 construct: from tissue; host or cells: calf thymus
T2 sequence (A0AAA9TD94 1-1441): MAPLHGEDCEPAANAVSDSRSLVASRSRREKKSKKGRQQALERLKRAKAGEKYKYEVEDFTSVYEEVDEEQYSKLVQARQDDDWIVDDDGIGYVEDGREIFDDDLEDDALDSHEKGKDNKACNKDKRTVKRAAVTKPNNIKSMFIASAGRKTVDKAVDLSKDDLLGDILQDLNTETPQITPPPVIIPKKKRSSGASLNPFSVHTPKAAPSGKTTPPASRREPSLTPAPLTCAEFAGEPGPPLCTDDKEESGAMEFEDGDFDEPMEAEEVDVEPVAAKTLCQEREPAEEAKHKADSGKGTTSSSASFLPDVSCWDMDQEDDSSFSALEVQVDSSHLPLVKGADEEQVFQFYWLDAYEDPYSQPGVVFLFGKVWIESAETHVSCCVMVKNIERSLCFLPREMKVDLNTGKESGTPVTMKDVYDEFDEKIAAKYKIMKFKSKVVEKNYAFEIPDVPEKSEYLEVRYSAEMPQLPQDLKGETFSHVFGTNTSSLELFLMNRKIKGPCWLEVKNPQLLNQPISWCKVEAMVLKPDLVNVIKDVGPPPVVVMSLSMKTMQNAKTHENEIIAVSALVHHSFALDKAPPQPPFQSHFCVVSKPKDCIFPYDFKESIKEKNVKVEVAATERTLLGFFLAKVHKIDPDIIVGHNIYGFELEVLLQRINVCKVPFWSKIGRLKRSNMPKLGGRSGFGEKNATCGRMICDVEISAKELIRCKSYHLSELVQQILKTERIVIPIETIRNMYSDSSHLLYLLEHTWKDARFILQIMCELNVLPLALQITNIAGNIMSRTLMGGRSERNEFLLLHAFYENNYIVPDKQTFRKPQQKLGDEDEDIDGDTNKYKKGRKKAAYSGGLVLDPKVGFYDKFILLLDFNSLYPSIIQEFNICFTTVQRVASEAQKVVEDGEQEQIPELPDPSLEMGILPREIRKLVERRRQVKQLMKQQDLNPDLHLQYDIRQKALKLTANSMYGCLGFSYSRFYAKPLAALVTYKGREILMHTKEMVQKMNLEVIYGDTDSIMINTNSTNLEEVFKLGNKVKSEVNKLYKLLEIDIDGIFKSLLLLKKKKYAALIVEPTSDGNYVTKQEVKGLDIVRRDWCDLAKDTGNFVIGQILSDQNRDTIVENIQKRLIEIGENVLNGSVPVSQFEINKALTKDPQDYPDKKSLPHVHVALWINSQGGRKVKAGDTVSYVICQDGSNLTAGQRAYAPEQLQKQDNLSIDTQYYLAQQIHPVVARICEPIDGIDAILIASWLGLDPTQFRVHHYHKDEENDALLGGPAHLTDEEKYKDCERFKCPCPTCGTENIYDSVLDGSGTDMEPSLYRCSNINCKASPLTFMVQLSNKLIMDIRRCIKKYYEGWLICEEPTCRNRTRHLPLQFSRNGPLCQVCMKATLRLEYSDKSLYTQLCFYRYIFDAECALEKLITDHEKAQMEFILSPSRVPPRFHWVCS
The following applies: 0.05 units enzyme; mean ± SD (n = 3).

In the next experiment the target is T3, Human pol δ (Homo sapiens, UniProt P28340).
T3 construct: purified by nuclear fractionation of human peripheral blood cancer cells (Molt-4); endogenous in cells; host or cells: Molt-4
The following applies: 0.05 units enzyme; mean ± SD (n = 3).

In another experiment the target is T4, E. coli pol I (Escherichia coli, UniProt P00582).
T4 construct: The Klenow fragment of pol I from E. coli was purchased from Worthington Biochemical Corp; purchased Worthington Biochemical Corp. (Freehold, NJ, USA)
T4 sequence (P00582 324-928): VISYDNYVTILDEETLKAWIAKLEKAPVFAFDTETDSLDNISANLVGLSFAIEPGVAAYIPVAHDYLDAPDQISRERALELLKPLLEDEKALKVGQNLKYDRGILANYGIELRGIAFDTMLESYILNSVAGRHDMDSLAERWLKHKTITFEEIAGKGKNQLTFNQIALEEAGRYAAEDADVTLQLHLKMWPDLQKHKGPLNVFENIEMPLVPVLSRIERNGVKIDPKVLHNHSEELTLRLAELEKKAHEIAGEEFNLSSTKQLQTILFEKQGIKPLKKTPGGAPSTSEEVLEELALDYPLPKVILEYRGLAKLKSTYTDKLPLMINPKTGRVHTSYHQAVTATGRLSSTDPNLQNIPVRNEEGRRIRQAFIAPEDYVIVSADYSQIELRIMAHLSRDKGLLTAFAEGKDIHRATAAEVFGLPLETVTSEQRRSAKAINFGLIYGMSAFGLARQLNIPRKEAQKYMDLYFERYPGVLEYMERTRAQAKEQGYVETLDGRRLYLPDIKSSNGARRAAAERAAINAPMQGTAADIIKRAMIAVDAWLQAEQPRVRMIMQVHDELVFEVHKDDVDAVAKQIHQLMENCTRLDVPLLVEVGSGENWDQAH

In another experiment the target is T5, Taq pol (Thermus aquaticus, UniProt P19821).
T5 construct: purchased Takara Bio Inc. (Kyoto, Japan)
T5 sequence (P19821 whole entry): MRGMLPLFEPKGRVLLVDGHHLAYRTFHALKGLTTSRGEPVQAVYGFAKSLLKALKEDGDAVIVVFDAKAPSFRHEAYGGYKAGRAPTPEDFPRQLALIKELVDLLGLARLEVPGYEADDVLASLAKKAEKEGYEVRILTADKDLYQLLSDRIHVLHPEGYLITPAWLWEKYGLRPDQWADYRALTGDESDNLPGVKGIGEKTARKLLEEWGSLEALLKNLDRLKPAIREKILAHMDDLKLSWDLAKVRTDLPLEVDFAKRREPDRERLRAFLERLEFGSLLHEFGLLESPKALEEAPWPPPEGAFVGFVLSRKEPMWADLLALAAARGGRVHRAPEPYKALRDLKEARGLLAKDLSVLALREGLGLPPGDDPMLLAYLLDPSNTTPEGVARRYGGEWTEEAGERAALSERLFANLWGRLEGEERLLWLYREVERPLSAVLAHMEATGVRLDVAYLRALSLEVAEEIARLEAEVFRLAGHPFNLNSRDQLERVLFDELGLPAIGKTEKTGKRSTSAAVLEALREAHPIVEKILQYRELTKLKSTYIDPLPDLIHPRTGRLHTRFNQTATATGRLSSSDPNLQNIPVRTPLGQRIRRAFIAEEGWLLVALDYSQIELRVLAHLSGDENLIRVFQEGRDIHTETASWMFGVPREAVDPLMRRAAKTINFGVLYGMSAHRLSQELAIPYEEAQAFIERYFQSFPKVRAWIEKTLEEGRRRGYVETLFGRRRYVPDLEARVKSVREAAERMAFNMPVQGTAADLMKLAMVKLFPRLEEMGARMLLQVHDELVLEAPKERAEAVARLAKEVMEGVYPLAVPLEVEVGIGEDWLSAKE

Another experiment concerns the target T6, T4 pol (Enterobacteria phage T4, UniProt P04415).
T6 construct: purchased Takara Bio Inc. (Kyoto, Japan)

A further experiment addresses T7, Human pol γ (Homo sapiens, UniProt P54098).
T7 construct: His tag; made in house

The target of another experiment is Cauliflower pol α (Brassica oleracea var. botrytis, UniProt A0A0D3D890).

Each structure is given as a SMILES string.

T6 sequence (P04415 whole entry): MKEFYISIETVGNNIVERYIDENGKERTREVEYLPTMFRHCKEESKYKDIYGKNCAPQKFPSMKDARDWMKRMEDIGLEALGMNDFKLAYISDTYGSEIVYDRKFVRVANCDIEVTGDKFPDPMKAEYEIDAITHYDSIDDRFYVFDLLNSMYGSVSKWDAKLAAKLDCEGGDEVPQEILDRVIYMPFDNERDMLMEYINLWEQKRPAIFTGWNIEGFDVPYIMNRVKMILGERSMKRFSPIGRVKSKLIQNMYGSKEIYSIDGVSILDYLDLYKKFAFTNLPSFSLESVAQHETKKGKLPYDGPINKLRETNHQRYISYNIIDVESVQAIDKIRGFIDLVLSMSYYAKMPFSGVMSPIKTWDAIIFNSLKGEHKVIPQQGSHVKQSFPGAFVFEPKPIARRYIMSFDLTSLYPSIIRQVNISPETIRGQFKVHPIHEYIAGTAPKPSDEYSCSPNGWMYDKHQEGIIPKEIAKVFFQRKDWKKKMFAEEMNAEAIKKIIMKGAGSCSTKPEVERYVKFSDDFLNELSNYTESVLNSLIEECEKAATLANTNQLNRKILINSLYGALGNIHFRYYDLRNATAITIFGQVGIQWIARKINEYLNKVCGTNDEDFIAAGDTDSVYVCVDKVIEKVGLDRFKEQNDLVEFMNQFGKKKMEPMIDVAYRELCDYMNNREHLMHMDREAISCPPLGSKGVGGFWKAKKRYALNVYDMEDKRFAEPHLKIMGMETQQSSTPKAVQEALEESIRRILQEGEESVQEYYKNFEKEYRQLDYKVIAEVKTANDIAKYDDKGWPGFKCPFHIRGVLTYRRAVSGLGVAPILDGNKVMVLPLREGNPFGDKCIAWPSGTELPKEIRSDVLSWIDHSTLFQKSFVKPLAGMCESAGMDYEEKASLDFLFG
T7 sequence (P54098 whole entry): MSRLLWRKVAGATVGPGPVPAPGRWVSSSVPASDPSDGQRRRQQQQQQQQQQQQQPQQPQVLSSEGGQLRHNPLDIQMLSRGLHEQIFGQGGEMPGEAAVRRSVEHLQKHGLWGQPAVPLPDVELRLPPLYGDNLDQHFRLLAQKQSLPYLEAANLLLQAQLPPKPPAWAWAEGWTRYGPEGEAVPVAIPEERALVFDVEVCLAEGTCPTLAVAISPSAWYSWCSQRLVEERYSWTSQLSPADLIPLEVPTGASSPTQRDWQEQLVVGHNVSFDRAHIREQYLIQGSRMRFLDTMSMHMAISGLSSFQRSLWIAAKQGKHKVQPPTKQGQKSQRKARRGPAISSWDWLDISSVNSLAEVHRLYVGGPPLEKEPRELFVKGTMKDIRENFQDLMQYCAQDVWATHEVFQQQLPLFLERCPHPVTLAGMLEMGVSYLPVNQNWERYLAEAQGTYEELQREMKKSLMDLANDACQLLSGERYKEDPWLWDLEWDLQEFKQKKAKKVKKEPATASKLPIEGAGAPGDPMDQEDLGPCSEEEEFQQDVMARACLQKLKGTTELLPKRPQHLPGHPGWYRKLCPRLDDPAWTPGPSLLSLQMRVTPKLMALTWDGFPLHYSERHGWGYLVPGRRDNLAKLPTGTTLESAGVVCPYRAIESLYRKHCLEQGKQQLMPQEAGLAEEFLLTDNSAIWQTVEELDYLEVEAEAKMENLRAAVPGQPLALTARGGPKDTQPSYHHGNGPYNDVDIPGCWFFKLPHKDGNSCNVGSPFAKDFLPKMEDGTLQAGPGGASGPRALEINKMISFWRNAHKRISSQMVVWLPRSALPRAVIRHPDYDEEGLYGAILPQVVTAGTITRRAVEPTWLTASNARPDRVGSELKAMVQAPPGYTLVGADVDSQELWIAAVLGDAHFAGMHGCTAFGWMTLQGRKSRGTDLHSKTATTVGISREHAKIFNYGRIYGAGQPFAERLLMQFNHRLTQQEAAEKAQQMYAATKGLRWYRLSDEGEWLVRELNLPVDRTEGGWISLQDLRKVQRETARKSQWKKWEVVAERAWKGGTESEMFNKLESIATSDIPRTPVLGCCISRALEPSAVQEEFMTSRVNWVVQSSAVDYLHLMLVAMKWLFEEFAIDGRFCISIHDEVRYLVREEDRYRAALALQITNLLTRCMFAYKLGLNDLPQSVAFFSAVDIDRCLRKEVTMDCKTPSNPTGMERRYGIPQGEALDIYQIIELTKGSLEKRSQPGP

As usually defined, the IC50 is the concentration that inhibits the measured activity by half. Low values mean greater potency, high ones weaker potency. `CCCCCCCC/C=C\CCCCCCCC(=O)Oc1cccc2c1C(=O)C=C(C)C2=O` [2f, 5-O-oleoyl-2-methyl-1,4-naphthoquinone]: the half-maximal inhibitory concentration (IC50) against Rat pol β was 10.3 ± 0.46 µM; against Calf pol α it was 4.8 ± 0.38 µM; against Human pol δ, 5.3 ± 0.41 µM; on E. coli pol I (0.05 units enzyme), over 100 µM; against Taq pol (0.05 units enzyme, 74°C), over 100 µM; against T4 pol (0.05 units enzyme) it was over 100 µM. This compound also had an IC50 against Human pol γ (0.05 units enzyme, mean ± SD (n = 3)) of 4.5 ± 0.4 µM. Further, the “effect on enzyme activity (in words)” value on E. coli pol I, on Taq pol, at T4 pol and at Cauliflower pol α was “had no effect” throughout. At Human pol γ (10 µM compound, Fig. 4), the “inhibition of pol γ relative activity (in words)” value is recorded as “strongest inhibition”.
